Measured values from the supplement of paper PMC10307832.

Tests used:
Test in all cases: relative viability (nuclei count vs DMSO), 5 days (fraction); higher = more cells survive
[1] = compound: Cc1ccc(C(=O)Nc2ccc(CN3CCN(C)CC3)c(C(F)(F)F)c2)cc1C#Cc1cnc2cccnn12 [Ponatinib] + Nc1nc2[nH]cc(CCc3ccc(C(=O)N[C@@H](CCC(=O)O)C(=O)O)cc3)c2c(=O)[nH]1 [Pemetrexed] (partner 0.2 µM)
Summary of the method: (§1)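 Lung cancer cell lines in 1536-well plates got either a single drug or a fixed anchor-drug dose together with five library-drug doses (not always all listed) in √10 steps, by pin tool, on the day after seeding. Nuclei were counted after 5 days, and relative viability is the treated-to-vehicle ratio of nuclei counts. Values are medians of duplicate plates.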

[2] = compound: Cc1ccc(Nc2nccc(N(C)c3ccc4c(C)n(C)nc4c3)n2)cc1S(N)(=O)=O [Pazopanib] + O=C(c1cc(Cc2n[nH]c(=O)c3ccccc23)ccc1F)N1CCN(C(=O)C2CC2)CC1 [Olaparib] (partner 8 µM)
Summary of the method: as §1

[3] = compound: Cc1ccc(Nc2nccc(N(C)c3ccc4c(C)n(C)nc4c3)n2)cc1S(N)(=O)=O [Pazopanib] + COc1cccc2cc(-c3nc([C@H]4CC[C@H](C(=O)O)CC4)n4ncnc(N)c34)[nH]c12 [OSI-027] (partner 0.5 µM)
Summary of the method: as §1

[4] = compound: Cc1ccc(Nc2nccc(N(C)c3ccc4c(C)n(C)nc4c3)n2)cc1S(N)(=O)=O [Pazopanib] + Nc1ncn([C@H]2C[C@H](O)[C@@H](CO)O2)c(=O)n1 [Decitabine] (partner 2 µM)
Summary of the method: as §1

Cell Line | relative viability ([1]; first compound 0.002 µM) | relative viability ([1]; first compound 0.006325 µM) | relative viability ([1]; first compound 0.06325 µM) | relative viability ([1]; first compound 0.2 µM) | relative viability ([2]; first compound 0.01 µM) | relative viability ([2]; first compound 0.03162 µM) | relative viability ([2]; first compound 0.1 µM) | relative viability ([2]; first compound 0.3162 µM) | relative viability ([2]; first compound 1 µM) | relative viability ([3]; first compound 0.01 µM) | relative viability ([3]; first compound 0.03162 µM) | relative viability ([3]; first compound 0.1 µM) | relative viability ([3]; first compound 0.3162 µM) | relative viability ([3]; first compound 1 µM) | relative viability ([4]; first compound 0.01 µM) | relative viability ([4]; first compound 0.03162 µM) | relative viability ([4]; first compound 0.1 µM) | relative viability ([4]; first compound 0.3162 µM) | relative viability ([4]; first compound 1 µM)
HOP-62 | 0.268 | 0.33 | 0.276 | 0.304 | 0.411 | 0.454 | 0.518 | 0.383 | 0.288 | 0.787 | 0.869 | 0.871 | 0.879 | 0.727 | 0.208 | 0.238 | 0.228 | 0.288 | 0.196
NCI-H596 | 0.478 | 0.467 | 0.48 | 0.469 | 0.674 | 0.661 | 0.676 | 0.749 | 0.629 | – | 0.74 | 0.568 | 0.879 | 0.632 | 0.996 | 1.08 | 1.14 | 1.12 | 0.966
NCI-H1755 | 0.402 | 0.404 | 0.398 | 0.466 | 0.798 | 0.837 | 0.866 | 0.882 | 0.944 | 0.693 | 0.653 | 0.671 | 0.678 | 0.632 | 0.718 | 0.709 | 0.742 | 0.773 | 0.783
NCI-H2023 | 0.17 | 0.222 | 0.235 | 0.186 | 0.441 | 0.487 | 0.516 | 0.466 | 0.45 | 0.417 | 0.425 | 0.35 | 0.42 | 0.536 | 0.206 | 0.236 | 0.228 | 0.206 | 0.265
NCI-H2009 | 1.05 | 0.935 | 0.959 | 0.934 | 0.746 | 0.699 | 0.686 | 0.677 | 0.456 | 0.576 | 0.622 | 0.566 | 0.56 | 0.44 | 0.334 | 0.387 | 0.396 | 0.343 | 0.382
